Earlier results in patent publication US12133903B2, “Oral care article comprising a delivery carrier and solid hydrophilic particles comprising a bleaching agent” (The Procter & Gamble Company, priority 2020, dated 2024).

Details: in water; supplier data sheet / Safety Data Sheet / Wikipedia

SMILES: NC(N)=O.OO [Urea Hydrogen Peroxide Adduct]
- Solubility: 80 parts per 100 parts of water
